# From patent publication US20090306373A1, “4,7-DIHYDROTHIENO[2,3-B]PYRIDINE COMPOUNDS AND PHARMACEUTICAL COMPOSITIONS” (priority 2005, published 2009)
# Tested on: alpha-MyHC
# Assay: alpha-MyHC cytoblot in neonatal rat ventricular myocytes (NRVM)
# Format: cell-based
# Conditions: Rattus norvegicus, Ventricular myocyte, Table 1, 72 hours, concentration giving 50% of maximum response
# Experimental: In vitro activity of each compound is measured using the alpha-MyHC cytoblot process. Briefly, neonatal rat ventricular myocytes (NRVM) at 120,000 cells/ml in HyQ DME/High modified culture media supplemented with 10% charcoal/dextran treated FBS, 0.1% Nutridoma-SP, 1:100 MEM non-essential amino acids, 1:50 MEM amino acids solution w/o L-Gln, 1 mM sodium pyruvate and 1:100 P/S/G, are plated on gelatin coated sterile 384-well plates (Costar 3712) at 6,000 cells per well. Cells are incubated overnight at 37° C. in 5% CO2 100% humidity. Following overnight growth the media is changed to HyQ DME/High modified culture media supplemented with 0.3% Nutridoma-SP, 1:100 MEM non-essential amino acids, 1:50 MEM amino acids solution w/o L-Gln, 1 mM sodium pyruvate and 1:100 P/S/G. Cells are then dosed with serial dilutions of each compound in DMSO. Each concentration in the dose range is dosed in quadruplicate. Dosing is done in such a way so that the final DMSO concentration was 0.44%. Compound dilutions are 3-fold with the final top concentration of 10 uM. […] Following dosing, the cells are incubated for 72 hours at 37° C. in 5% CO2 100% humidity and then processed with the cytoblot method. Briefly, cell media is aspirated and cell monolayers washed with PBS and fixed with 100% methanol for 30 minutes. Fixed cells are then blocked with PBS, 0.05% Tween-20, 1% BSA, for 1 hour. Following blocking, cells are incubated with primary alpha-MyHC-specific antibody (1:30 dilution of BA-G5 hybridoma conditioned media, ATCC HB276) for 1 hour. Following incubation with the primary antibody, cells are washed with PBS, 0.05% Tween-20, 1% BSA and incubated with secondary antibody (1:1000 dilution, goat-anti-mouse HRP, Southern Biotech, 1031-05) for 1 hour. Following incubation with the secondary antibody, wells are washed and incubated in SuperSignal, West Dura HRP-luminescence substrate for 30 seconds under shaking at room temperature. Luminescence is measured using a Packard Fusion plate reader. […] RLU values are converted into percent fraction of low control and dose responses are fitted to a sigmoidal 4-parameter equation (XLFit, IDBS) where the EC50 and Max Plateau values were extracted. […] Max Plateau is the […] maximum value determined by the dose response fit.
row,EC50,SMILES
1,24.8 nM,"CCC(=O)C1=C(CC)Nc2sc(C(=O)c3ccc(Cl)c(Cl)c3)c(N)c2C1c1ccncc1 (stereo not drawn) [Compound 104, 1-[3-amino-2-(3,4 dichloro-benzoyl)-6-ethyl-4 pyridin-4-yl-4,7 dihydro-thieno[2,3-b]pyridin-5-yl]-propan-1-one]"

# Same assay, conditions: Table 1, 72 hours, fitted maximum, percent fraction of low control (vehicle), in %
row,SMILES,Max Plateau
1,CCC(=O)C1=C(CC)Nc2sc(C(=O)c3ccc(Cl)c(Cl)c3)c(N)c2C1c1ccccc1C (stereo not drawn) [Compound 56],293.74 ± 50.82
2,CC(=O)C1=C(C)Nc2sc(C(=O)c3ccccc3Cl)c(N)c2C1c1ccccc1 (stereo not drawn) [Compound 57],246.00 ± 16.33
3,CCC(=O)C1=C(CC)Nc2sc(C(=O)c3ccc(Cl)c(Cl)c3)c(N)c2C1c1cccc([N+](=O)[O-])c1 (stereo not drawn) [Compound 58],232.20 ± 56.57
4,CCC(=O)C1=C(CC)Nc2sc(C(=O)c3ccc(Cl)c(Cl)c3)c(N)c2C1c1ccccc1[N+](=O)[O-] (stereo not drawn) [Compound 59],152.77 ± 11.42
5,CCC(=O)C1=C(CC)Nc2sc(C(=O)c3ccc(Cl)c(Cl)c3)c(N)c2C1c1ccccc1C(F)(F)F (stereo not drawn) [Compound 60],100.00 ± 0.00
6,CC(=O)C1=C(C)Nc2sc(C(=O)c3cccc(F)c3)c(N)c2C1c1ccccc1 (stereo not drawn) [Compound 61],230.65 ± 55.61
7,COC(=O)c1cccc(C(=O)c2sc3c(c2N)C(c2ccccc2)C(C(C)=O)=C(C)N3)c1 (stereo not drawn) [Compound 62],279.31 ± 67.94
8,CCC(=O)C1=C(CC)Nc2sc(C(=O)c3ccc(Cl)c(Cl)c3)c(N)c2C1c1c(F)cccc1F (stereo not drawn) [Compound 63],230.07 ± 45.59
9,CCC(=O)C1=C(CC)Nc2sc(C(=O)c3cc(Cl)ccc3Cl)c(N)c2C1c1ccccc1 (stereo not drawn) [Compound 64],281.39 ± 54.54
10,CC(=O)C1=C(C)Nc2sc(C(=O)c3cccc(C(=O)O)c3)c(N)c2C1c1ccccc1 (stereo not drawn) [Compound 65],100.00 ± 0.00
11,CCC(=O)C1=C(CC)Nc2sc(C(=O)c3cccc(Cl)c3)c(N)c2C1c1ccccc1 (stereo not drawn) [Compound 66],306.19 ± 54.21
12,CCC(=O)C1=C(CC)Nc2sc(C(=O)c3ccccc3F)c(N)c2C1c1ccccc1 (stereo not drawn) [Compound 67],256.12 ± 53.66
13,CCC(=O)C1=C(CC)Nc2sc(C(=O)c3ccccc3)c(N)c2C1c1cccnc1 (stereo not drawn) [Compound 68],175.88 ± 14.54
14,CCC(=O)C1=C(CC)Nc2sc(C(=O)c3ccccc3)c(N)c2C1c1c(F)cccc1F (stereo not drawn) [Compound 69],221.36 ± 15.94
15,CCC(=O)C1=C(CC)Nc2sc(C(=O)c3ccc(Cl)cc3Cl)c(N)c2C1c1ccccc1 (stereo not drawn) [Compound 70],191.97 ± 13.09
16,CCC(=O)C1=C(CC)Nc2sc(C(=O)c3ccc(F)c(F)c3)c(N)c2C1c1ccccc1 (stereo not drawn) [Compound 72],223.99 ± 24.51
17,CCC(=O)C1=C(CC)Nc2sc(C(=O)c3cc(C(F)(F)F)cc(C(F)(F)F)c3)c(N)c2C1c1ccccc1 (stereo not drawn) [Compound 73],205.27 ± 38.78
18,CCC(=O)C1=C(CC)Nc2sc(C(=O)c3cccc(C(=O)OC)c3)c(N)c2C1c1ccccc1 (stereo not drawn) [Compound 74],262.81 ± 32.38
19,CCC(=O)C1=C(CC)Nc2sc(C(=O)c3ccc(Cl)c(Cl)c3)c(N)c2C1c1cccnc1 (stereo not drawn) [Compound 75],226.71 ± 40.80
20,CCC(=O)C1=C(CC)Nc2sc(C(=O)c3cc(F)cc(F)c3)c(N)c2C1c1ccccc1 (stereo not drawn) [Compound 76],230.70 ± 23.22
21,CCC(=O)C1=C(CC)Nc2sc(C(=O)c3cccc(C(=O)O)c3)c(N)c2C1c1ccccc1 (stereo not drawn) [Compound 77],220.00 ± 10.00
22,CCC(=O)C1=C(CC)Nc2sc(C(=O)c3ccccc3)c(N)c2C1c1ccccc1F (stereo not drawn) [Compound 78],269.77 ± 35.30
23,CCC(=O)C1=C(CC)Nc2sc(C(=O)c3ccc(F)cc3)c(N)c2C1c1ccccc1 (stereo not drawn) [Compound 79],241.90 ± 15.79
24,CCC(=O)C1=C(CC)Nc2sc(C(=O)c3ccc(Cl)cc3)c(N)c2C1c1ccccc1 (stereo not drawn) [Compound 80],226.13 ± 5.25

row,SMILES,Max Plateau
1,CCC(=O)C1=C(CC)Nc2sc(C(=O)c3ccc(Cl)c(Cl)c3)c(N)c2C1c1ccc(OC)cc1F (stereo not drawn) [Compound 81],184.00 ± 15.51
2,CCC(=O)C1=C(CC)Nc2sc(C(=O)c3ccccc3Cl)c(N)c2C1c1ccccc1 (stereo not drawn) [Compound 82],245.96 ± 30.73
3,CCC(=O)C1=C(CC)Nc2sc(C(=O)c3ccc(Cl)c(Cl)c3)c(N)c2C1c1ccc(O)cc1Cl (stereo not drawn) [Compound 83],274.88 ± 44.56
4,CCC(=O)C1=C(CC)Nc2sc(C(=O)c3ccc(Cl)c(Cl)c3)c(N)c2C1c1cccc(F)c1 (stereo not drawn) [Compound 84],242.72 ± 19.34
5,CCC(=O)C1=C(CC)Nc2sc(C(=O)c3ccc(Cl)c(Cl)c3)c(N)c2C1c1cccc2ccccc12 (stereo not drawn) [Compound 85],105.90 ± 6.18
6,CCCC(=O)C1=C(CCC)Nc2sc(C(=O)c3ccc(Cl)c(Cl)c3)c(N)c2C1c1ccccc1 (stereo not drawn) [Compound 86],131.26 ± 2.34
7,CCCC(=O)C1=C(CCC)Nc2sc(C(=O)c3ccc(Cl)c(Cl)c3)c(N)c2C1c1ccccc1F (stereo not drawn) [Compound 87],187.66 ± 12.24
8,CCC(=O)C1=C(CC)Nc2sc(C(=O)c3ccc(Cl)c(Cl)c3)c(N)c2C1c1ccc2ccccc2c1 (stereo not drawn) [Compound 88],113.45 ± 11.92
9,CCC(=O)C1=C(CC)Nc2sc(C(=O)c3ccc(Cl)c(C)c3)c(N)c2C1c1ccccc1 (stereo not drawn) [Compound 89],230.09 ± 19.81
10,CCC(=O)C1=C(CC)Nc2sc(C(=O)c3cc(C(C)(C)C)c(O)c(C(C)(C)C)c3)c(N)c2C1c1ccccc1 (stereo not drawn) [Compound 90],300.00 ± 0.00
11,CCCC(=O)C1=C(CCC)Nc2sc(C(=O)c3ccc(Cl)cc3Cl)c(N)c2C1c1ccccc1F (stereo not drawn) [Compound 91],143.39 ± 20.69
12,CCCC(=O)C1=C(CCC)Nc2sc(C(=O)c3cc(Cl)ccc3Cl)c(N)c2C1c1ccccc1F (stereo not drawn) [Compound 92],189.00 ± 25.40
13,CCCC(=O)C1=C(CCC)Nc2sc(C(=O)c3cc(Cl)ccc3Cl)c(N)c2C1c1ccccc1 (stereo not drawn) [Compound 94],153.83 ± 13.14
14,CCCC(=O)C1=C(CCC)Nc2sc(C(=O)c3ccc(F)c(F)c3)c(N)c2C1c1ccccc1 (stereo not drawn) [Compound 95],147.01 ± 6.43
15,CCC(=O)C1=C(CC)Nc2sc(C(=O)c3cccc([N+](=O)[O-])c3)c(N)c2C1c1ccccc1 (stereo not drawn) [Compound 96],254.87 ± 72.67
16,CCC(=O)C1=C(CC)Nc2sc(C(=O)c3cccc([N+](=O)[O-])c3)c(N)c2C1c1ccccc1F (stereo not drawn) [Compound 97],247.24 ± 38.88
17,CCC(=O)C1=C(CC)Nc2sc(C(=O)c3ccc(Cl)c(Cl)c3)c(N)c2C1c1ccnc(F)c1 (stereo not drawn) [Compound 98],255.02 ± 32.01
18,CCC(=O)C1=C(CC)Nc2sc(C(=O)c3ccc(Cl)c(Cl)c3)c(N)c2C1c1ccnc(Cl)c1 (stereo not drawn) [Compound 99],264.37 ± 33.84
19,CCC(=O)C1=C(CC)Nc2sc(C(=O)c3ccc(Cl)c(Cl)c3)c(N)c2C1c1cc(F)cc(F)c1 (stereo not drawn) [Compound 100],262.04 ± 31.65
20,CCC(=O)C1=C(CC)Nc2sc(C(=O)c3ccc(F)c(F)c3)c(N)c2C1c1cc(F)cc(F)c1 (stereo not drawn) [Compound 101],230.49 ± 17.13
21,CCC(=O)C1=C(CC)Nc2sc(C(=O)c3ccc(F)c(F)c3)c(N)c2C1c1ccnc(F)c1 (stereo not drawn) [Compound 102],269.88 ± 36.90
22,CCC(=O)C1=C(CC)Nc2sc(C(=O)c3cccnc3)c(N)c2C1c1ccnc(F)c1 (stereo not drawn) [Compound 103],254.65 ± 31.26
23,CCC(=O)C1=C(CC)Nc2sc(C(=O)c3ccccc3)c(N)c2C1c1cc(F)cc(F)c1 (stereo not drawn) [Compound 105],273.18 ± 37.33
